Laboratory results taken from US20250340510A1, “Substituted Phenylbenzenesulfonamide Derivatives and Uses Thereof” (Nine Square Therapeutics Corporation, priority 2022, published 2025).

What follows are molecules tested against TRPML1 (Homo sapiens, UniProt Q9GZU1) (assay: Calcium flux in HEK293 overexpressing TRPML1 plasma membrane variant (FLIPR, Calcium 6 dye)). Settings: HEK293/TRPML1-PM clone A5 cells; 4-parameter logistic fit; read-out: TRPML1 calcium flux (FLIPR) dose response: EC50.
Format: cell-based
Excerpt: Example B1. Calcium Flux in HEK293 Overexpressing TRPML1 Plasma Membrane Variant—Calcium 6 Dye
Cells: HEK293/TRPML1-PM clone A5, clonal cell line containing mutant TRPML1 (both N- and C-terminal dileucine targeting motifs deleted) that localizes to the plasma membrane
Plates: Perkin Elmer Viewplate cat. #6007460, black optically clear, tissue culture treated 384-well plate
Calcium dye: Molecular Devices FLIPR Calcium 6 Assay Kit, cat. #R8190 or Fluo-4 Direct from Thermo Fisher, cat. #F10471
Tips: Molecular Devices 384-well FLIPR Tetra black tips, cat. #9000-0764 Example B1.2 Method
HEK293/TRPML1-PM clone A5 cells were trypsinized from flasks, counted, then diluted in media to 15,000 cells per 25 μL, and seeded into a black, 384-well viewplate, and cultured overnight.
One vial of calcium 6 dye was diluted with 10 mL of assay buffer (HBSS+20 mM HEPES pH 7.4) and 25 μL of the dilution was added per well to the cells.
After incubating for 2 hours at 37° C., the plate was moved to the FLIPR in the read position.
The compounds were diluted in EMEM with 0.125% FBS to 5× concentration and loaded in a 384-well plate according to the desired plate map for the assay, including DMSO alone and carbachol controls, then the plate was moved to the FLIPR in the source 2 position.
A box of tips was placed in the source 1 position within the FLIPR to complete the assay set up.
Once the run was started, an initial baseline fluorescent measurement was performed for 10 seconds (470-495 nm excitation and 515-575 nm emission) prior to adding the compounds.
12.5 μL of 5× test compound, DMSO alone, or carbachol were added via the FLIPR and real-time fluorescence measurements were performed for an additional 170 seconds with 1 read per second.
The data was normalized to baseline by calculating maximum fluorescence minus minimum fluorescence and plotted as response (fold) over the baseline versus log ([…] concentration). The EC50 was determined using a 4-parameter logistic curve fit in Graphpad Prism 9.

Sequence of TRPML1 (Q9GZU1 17-572 limits assumed): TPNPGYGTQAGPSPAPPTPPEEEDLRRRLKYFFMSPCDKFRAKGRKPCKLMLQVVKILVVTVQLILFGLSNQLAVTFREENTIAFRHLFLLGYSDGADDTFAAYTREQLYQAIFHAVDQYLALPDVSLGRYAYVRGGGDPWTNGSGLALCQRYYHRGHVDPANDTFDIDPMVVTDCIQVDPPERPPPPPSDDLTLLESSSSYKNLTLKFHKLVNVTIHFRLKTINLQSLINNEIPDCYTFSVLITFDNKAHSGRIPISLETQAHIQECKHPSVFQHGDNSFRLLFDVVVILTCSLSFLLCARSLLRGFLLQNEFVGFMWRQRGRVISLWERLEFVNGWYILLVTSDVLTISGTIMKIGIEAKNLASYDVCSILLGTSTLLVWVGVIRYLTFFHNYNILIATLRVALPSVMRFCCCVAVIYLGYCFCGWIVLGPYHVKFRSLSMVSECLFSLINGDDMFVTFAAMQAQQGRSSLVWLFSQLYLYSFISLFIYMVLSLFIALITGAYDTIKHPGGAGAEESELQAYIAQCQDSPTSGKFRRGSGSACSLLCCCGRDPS

First: CN(CCC1CCOCC1)c1ccccc1NS(=O)(=O)c1ccc(S(=O)(=O)N(C)C)cc1 [Compound 114, N1,N1-dimethyl-N4-(2-(methyl(2-(tetrahydro-2H-pyran-4-yl)ethyl)amino)phenyl)benzene-1,4-disulfonamide]
Second: CN(CCC1COC1)c1ccccc1NS(=O)(=O)c1ccc(S(=O)(=O)N(C)C)cc1 [Compound 62, N1,N1-dimethyl-N4-(2-(methyl(2-(oxetan-3-yl)ethyl)amino)phenyl)benzene-1,4-disulfonamide]
The EC50 of the first is lower: 4020 nM for the first, > 30000 nM for the second. The first is the more potent here.

`Cc1ncsc1CN(C)c1ccccc1NS(=O)(=O)c1ccc(S(=O)(=O)N(C)C)cc1` [Compound 51, N1,N1-dimethyl-N4-(2-(methyl((4-methylthiazol-5-yl)methyl)amino)phenyl)benzene-1,4-disulfonamide] and `CCN(C)c1ccccc1NS(=O)(=O)c1ccc(S(=O)(=O)N(C)C)cc1` [Compound 9, N1-(2-(ethyl(methyl)amino)phenyl)-N4,N4-dimethylbenzene-1,4-disulfonamide] are within 1.5-fold of each other in EC50: 3050 nM for the first, 3460 nM for the second.

First: CCN(CC)c1ccccc1NS(=O)(=O)c1ccc(S(=O)(=O)N(C)C)cc1 [Compound 82, N1-(2-(diethylamino)phenyl)-N4,N4-dimethylbenzene-1,4-disulfonamide]
Second: CC(C)CN(C)c1ccccc1NS(=O)(=O)c1ccc(S(=O)(=O)N(C)C)cc1 [Compound 7, N1-(2-(isobutyl(methyl)amino)phenyl)-N4,N4-dimethylbenzene-1,4-disulfonamide]
The EC50 of the first is 7.4-fold higher: 3760 nM for the first, 510 nM for the second. The second is the more potent here.

`CN(c1cccc(F)c1NS(=O)(=O)c1ccc(S(=O)(=O)N(C)C)cc1)C1CCCCC1` [Compound 3, N1-(2-(cyclohexyl(methyl)amino)-6-fluorophenyl)-N4,N4-dimethylbenzene-1,4-disulfonamide] and `CN(c1cccc(Cl)c1NS(=O)(=O)c1ccc(S(=O)(=O)N(C)C)cc1)C1CCCCC1` [Compound 52, N1-(2-chloro-6-(cyclohexyl(methyl)amino)phenyl)-N4,N4-dimethylbenzene-1,4-disulfonamide] are within 1.5-fold of each other in EC50: 4760 nM for the first, 5780 nM for the second.

`CN(c1ccc(Cl)cc1NS(=O)(=O)c1ccc(S(=O)(=O)N(C)C)cc1)C1CCCCC1` [Compound 1, N1-(5-chloro-2-(cyclohexyl(methyl)amino)phenyl)-N4,N4-dimethylbenzene-1,4-disulfonamide] and `CN(c1ccc(F)cc1NS(=O)(=O)c1ccc(S(=O)(=O)N(C)C)cc1)C1CCCCC1` [Compound 53, N1-(2-(cyclohexyl(methyl)amino)-5-fluorophenyl)-N4,N4-dimethylbenzene-1,4-disulfonamide] are within 1.5-fold of each other in EC50: 1240 nM for the first, 1060 nM for the second.

`CN(c1ccccc1NS(=O)(=O)c1ccc(S(=O)(=O)N(C)C)cc1)C1CCCCC1(F)F` (stereo not drawn) [Compound 103, N1-(2-((2,2-difluorocyclohexyl) (methyl)amino)phenyl)-N4,N4-dimethylbenzene-1,4-disulfonamide] and `CN(c1ccccc1NS(=O)(=O)c1ccc(S(=O)(=O)N(C)C)cc1)C1CCOCC1` [Compound 19, N1,N1-dimethyl-N4-(2-(methyl(tetrahydro-2H-pyran-4-yl)amino)phenyl)benzene-1,4-disulfonamide] are within 1.5-fold of each other in EC50: 1970 nM for the first, 2030 nM for the second.

`CN(CC1CCC(C)(C)OC1)c1ccccc1NS(=O)(=O)c1ccc(S(=O)(=O)N(C)C)cc1` (stereo not drawn) [Compound 32, N1-(2-(((6,6-dimethyltetrahydro-2H-pyran-3-yl)methyl)(methyl)amino)phenyl)-N4,N4-dimethylbenzene-1,4-disulfonamide] and `CN(CC1CCOC(C)(C)C1)c1ccccc1NS(=O)(=O)c1ccc(S(=O)(=O)N(C)C)cc1` (stereo not drawn) [Compound 100, N1-(2-(((2,2-dimethyltetrahydro-2H-pyran-4-yl)methyl)(methyl)amino)phenyl)-N4,N4-dimethylbenzene-1,4-disulfonamide] are within 1.5-fold of each other in EC50: 810 nM for the first, 1160 nM for the second.

Going from `CN(Cc1ccc(F)cn1)c1ccccc1NS(=O)(=O)c1ccc(S(=O)(=O)N(C)C)cc1` [Compound 43, N1-(2-(((5-fluoropyridin-2-yl)methyl)(methyl)amino)phenyl)-N4,N4-dimethylbenzene-1,4-disulfonamide] to `CN(Cc1cccnc1)c1ccccc1NS(=O)(=O)c1ccc(S(=O)(=O)N(C)C)cc1` [Compound 57, N1,N1-dimethyl-N4-(2-(methyl(pyridin-3-ylmethyl)amino)phenyl)benzene-1,4-disulfonamide], the EC50 rises from 880 nM to 4610 nM (5.2-fold).

`CN(Cc1ccn(C2CC2)n1)c1ccccc1NS(=O)(=O)c1ccc(S(=O)(=O)N(C)C)cc1` [Compound 94, N1-(2-(((1-cyclopropyl-1H-pyrazol-3-yl)methyl)(methyl)amino)phenyl)-N4,N4-dimethylbenzene-1,4-disulfonamide] and `CN(Cc1cnn(C2CC2)c1)c1ccccc1NS(=O)(=O)c1ccc(S(=O)(=O)N(C)C)cc1` [Compound 5, N1-(2-(((1-cyclopropyl-1H-pyrazol-4-yl)methyl)(methyl)amino)phenyl)-N4,N4-dimethylbenzene-1,4-disulfonamide] are within 1.5-fold of each other in EC50: 2530 nM for the first, 2460 nM for the second.

Going from `CCN(c1ccccc1NS(=O)(=O)c1ccc(S(=O)(=O)N(C)C)cc1)C1CCCCC1` [Compound 60, N1-(2-(cyclohexyl(ethyl)amino)phenyl)-N4,N4-dimethylbenzene-1,4-disulfonamide] to `CN(c1cc(F)ccc1NS(=O)(=O)c1ccc(S(=O)(=O)N(C)C)cc1)C1CCCCC1` [Compound 4, N1-(2-(cyclohexyl(methyl)amino)-4-fluorophenyl)-N4,N4-dimethylbenzene-1,4-disulfonamide], the EC50 rises from 86.7 nM to 2210 nM (25-fold).

Compared with `CN(CC1CCOC1)c1ccccc1NS(=O)(=O)c1ccc(S(=O)(=O)N(C)C)cc1` (stereo not drawn) [Compound 112, N1,N1-dimethyl-N4-(2-(methyl((tetrahydrofuran-3-yl)methyl)amino)phenyl)benzene-1,4-disulfonamide], `CN(CC1CCCO1)c1ccccc1NS(=O)(=O)c1ccc(S(=O)(=O)N(C)C)cc1` (stereo not drawn) [Compound 107, N1,N1-dimethyl-N4-(2-(methyl((tetrahydrofuran-2-yl)methyl)amino)phenyl)benzene-1,4-disulfonamide] is 2.7-fold lower in EC50: 3720 nM for the first, 1390 nM for the second. The second is the more potent here.

Going from `CN(c1cccc(C(F)(F)F)c1NS(=O)(=O)c1ccc(S(=O)(=O)N(C)C)cc1)C1CCCCC1` [Compound 92, N1-(2-(cyclohexyl(methyl)amino)-6-(trifluoromethyl)phenyl)-N4,N4-dimethylbenzene-1,4-disulfonamide] to `CN(c1cccc(C#N)c1NS(=O)(=O)c1ccc(S(=O)(=O)N(C)C)cc1)C1CCCCC1` [Compound 86, N1-(2-cyano-6-(cyclohexyl(methyl)amino)phenyl)-N4,N4-dimethylbenzene-1,4-disulfonamide], the EC50 rises from 7440 nM to > 30000 nM.

Going from `CC(C)n1cnc(CN(C)c2ccccc2NS(=O)(=O)c2ccc(S(=O)(=O)N(C)C)cc2)c1` [Compound 31, N1-(2-(((1-isopropyl-1H-imidazol-4-yl)methyl)(methyl)amino)phenyl)-N4,N4-dimethylbenzene-1,4-disulfonamide] to `COCCCN(C)c1ccccc1NS(=O)(=O)c1ccc(S(=O)(=O)N(C)C)cc1` [Compound 34, N1-(2-((3-methoxypropyl)(methyl)amino)phenyl)-N4,N4-dimethylbenzene-1,4-disulfonamide], the EC50 falls from 8980 nM to 3200 nM (2.8-fold).

With `CN(c1ccccc1)c1ccccc1NS(=O)(=O)c1ccc(S(=O)(=O)N(C)C)cc1` [Compound 27, N1,N1-dimethyl-N4-(2-(methyl(phenyl)amino)phenyl)benzene-1,4-disulfonamide] the EC50 was > 10000 nM.
